The target of the first test is Human VPS34 (Homo sapiens (Human), UniProt Q8NEB9). As to the kind of experiment: Human VPS34 enzyme assay (Adapta TR-FRET). The test is classed as biochemical. Conditions: IC50 range class.
Human VPS34, sequence (Q8NEB9 whole entry): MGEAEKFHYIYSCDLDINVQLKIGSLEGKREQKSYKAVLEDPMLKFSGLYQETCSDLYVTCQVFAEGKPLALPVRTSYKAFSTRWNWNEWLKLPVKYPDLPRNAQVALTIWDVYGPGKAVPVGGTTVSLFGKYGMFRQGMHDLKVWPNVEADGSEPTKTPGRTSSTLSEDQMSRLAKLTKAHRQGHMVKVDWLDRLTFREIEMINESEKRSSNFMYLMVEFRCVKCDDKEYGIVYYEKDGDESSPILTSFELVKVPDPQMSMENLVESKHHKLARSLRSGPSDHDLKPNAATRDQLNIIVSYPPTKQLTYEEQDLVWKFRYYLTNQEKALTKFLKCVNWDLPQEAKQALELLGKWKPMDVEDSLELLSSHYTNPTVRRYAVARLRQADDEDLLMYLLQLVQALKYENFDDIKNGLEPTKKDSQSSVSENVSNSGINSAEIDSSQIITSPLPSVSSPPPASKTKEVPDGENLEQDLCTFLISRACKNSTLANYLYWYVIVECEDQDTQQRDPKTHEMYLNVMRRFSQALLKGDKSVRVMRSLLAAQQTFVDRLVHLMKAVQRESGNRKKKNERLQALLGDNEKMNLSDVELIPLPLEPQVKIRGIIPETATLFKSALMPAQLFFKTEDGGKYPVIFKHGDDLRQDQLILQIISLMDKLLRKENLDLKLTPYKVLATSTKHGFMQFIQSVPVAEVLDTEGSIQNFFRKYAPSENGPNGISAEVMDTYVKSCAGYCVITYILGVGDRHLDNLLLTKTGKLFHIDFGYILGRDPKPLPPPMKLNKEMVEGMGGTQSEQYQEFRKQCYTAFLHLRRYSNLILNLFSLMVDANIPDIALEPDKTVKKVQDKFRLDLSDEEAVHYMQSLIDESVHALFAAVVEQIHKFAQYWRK
In the case of `CC(=O)Nc1cc(-c2cnc(N)c(S(=O)(=O)NC(C)C)c2)ccn1` [Compound I-7, N-[6-amino-5-(isopropylsulfamoyl)-3,4′-bipyridin-2′-yl]acetamide], the IC50 (commonly the midpoint of a concentration-inhibition curve) is less than 10 nM.

Staying with this test, now noted: compound concentration 1.11 μM; read-out: Percent Inhibition.
With `Cc1ncc(-c2ccnc(NC(=O)C3CC3(F)F)c2)cc1NS(=O)(=O)c1ccc(F)cc1F` (racemic) [Compound I-16, (rac)-N-(5-{[(2,4-difluorophenyl)sulfonyl]amino}-6-methyl-3,4′-bipyridin-2′-yl)-2,2-difluorocyclopropanecarboxamide], the inhibition (in general, how much of the control response was suppressed) at 1.11 µM is more than 99%.
Still for that read-out and setting: as for `CC(=O)Nc1cc(-c2cnc(C)c(N3CC(N(C)C)CS3(=O)=O)c2)ccn1` (single isomer, unassigned) [Compound I-496, N-(5-(4-(dimethylamino)-1,1-dioxidoisothiazolidin-2-yl)-6-methyl-[3,4′-bipyridin]-2′-yl)acetamide], the figure is more than 99%.
As to `CC(=O)Nc1cc(-c2cnc(C)c(N3CC(N(C)C)CS3(=O)=O)c2)ccn1` (single isomer, unassigned) [Compound I-497, (R or S)—N-(5-(4-(dimethylamino)-1,1-dioxidoisothiazolidin-2-yl)-6-methyl-[3,4′-bipyridin]-2′-yl)acetamide], the inhibition at 1.11 µM was more than 99%.
The same measure, in the same setting: as for `CC(=O)Nc1cc(-c2cnc(C)c(NS(=O)(=O)c3ccc(C(F)(F)F)nc3)c2)ccn1` [Compound I-1, N-[6-methyl-5-({[6-(trifluoromethyl)pyridin-3-yl]sulfonyl}amino)-3,4′-bipyridin-2′-yl]acetamide], the figure is more than 99%; as for `CC(=O)Nc1cc(-c2cnc3cnn(S(=O)(=O)C4CC4)c3c2)ccn1` [Compound I-2, N-{4-[1-(cyclopropylsulfonyl)-1H-pyrazolo[4,3-b]pyridin-6-yl]pyridin-2-yl}acetamide], more than 99%; as for `CC(=O)Nc1cc(-c2cnc(N)c(S(=O)(=O)Cc3ccc4ccccc4c3)c2)ccn1` [Compound I-3], 87%.
On the same count and under the same terms, as for `Cc1cnc(NC(=O)C2CC2)cc1-c1cnc(C)c(NS(=O)(=O)c2ccc(F)cc2F)c1` [Compound I-4, N-(5-{[(2,4-difluorophenyl)sulfonyl]amino}-5′,6-dimethyl-3,4′-bipyridin-2′-yl)cyclopropanecarboxamide], the figure is more than 99%; as for `CC(=O)Nc1cc(-c2cnc(N)c(S(=O)(=O)Cc3ccccc3)c2)ccn1` [Compound I-6, N-[6-amino-5-(benzylsulfonyl)-3,4′-bipyridin-2′-yl]acetamide], more than 99%; as for `CC(=O)Nc1cc(-c2cnc(N)c(S(=O)(=O)NC(C)C)c2)ccn1` [Compound I-7, N-[6-amino-5-(isopropylsulfamoyl)-3,4′-bipyridin-2′-yl]acetamide], more than 99%.
Take `CC(=O)Nc1cc(-c2cncc(C(=O)C3CC3)c2)ccn1` [Compound I-8, N-[5-(cyclopropylcarbonyl)-3,4′-bipyridin-2′-yl]acetamide]: the inhibition at 1.11 µM was more than 99%.
`CC(=O)Nc1cc(-c2cncc(S(=O)(=O)N3CCC(F)(F)CC3)c2)ccn1` [Compound I-9, N-{5-[(4,4-difluoropiperidin-1-yl)sulfonyl]-3,4′-bipyridin-2′-yl}acetamide]: the inhibition at 1.11 µM was more than 99%.
The same measure, in the same setting: the same measure for `CC(=O)Nc1cc(-c2cnc(N)c(C(=O)N3CCCCC3)c2)ccn1` [Compound I-10, N-[6-amino-5-(piperidin-1-ylcarbonyl)-3,4′-bipyridin-2′-yl]acetamide]: more than 99%; for `CC(=O)Nc1cc(-c2cnc(N)c(S(=O)(=O)NC34CC(C3)C4)c2)ccn1` [Compound I-11, N-[6-amino-5-(bicyclo[1.1.1]pent-1-ylsulfamoyl)-3,4′-bipyridin-2′-yl]acetamide]: more than 99%.
On the same count and under the same terms, as for `CC(=O)Nc1cc(-c2cncc(NS(=O)(=O)c3ccc(F)cc3F)c2)ccn1` [Compound I-12, N-(5-{[(2,4-difluorophenyl)sulfonyl]amino}-3,4′-bipyridin-2′-yl)acetamide], the figure is more than 99%; as for `CC(=O)Nc1cc(-c2cncc(NC(=O)c3ccccc3)c2)ccn1` [Compound I-13, N-(2′-acetamido-3,4′-bipyridin-5-yl)benzamide], 81%.

The values are drawn from patent publication US9802960B2 (MILLENNIUM PHARMACEUTICALS, INC., priority 2014, dated 2017).
